Test results published in a melting point compilation (Tetko et al.; mined from patent text by program, amines drawn as free bases though some values may be those of a salt).

melting point | Structure (SMILES)
76 to 77 °C | CCOCc1cc2cc(Cl)ccc2oc1=Nc1ccc(C)cc1
162 to 166 °C | COC(=O)c1cc(CS(=O)(=O)c2ccccc2)cnc1C1=NC(C)(C(C)C)C(=O)N1C(=O)c1ccccc1 (configuration not stated)
142 to 143 °C | COc1ccc(C(=O)c2ccc(OCc3nc(-c4ccccc4)oc3C)cc2)c(OCCC(=O)O)c1
188 °C | Cc1cc(C(=O)O)n(-c2ccc(F)cc2)n1
95 to 99 °C | Cc1cc(OC2SCC(O)C(O)C2O)c(-c2ccnn2-c2ccccc2)cc1Cl (configuration not stated)
186 °C | Cc1ccc(OCn2cc(Cl)cnc2=O)cc1
199 to 201 °C | O=C(O)c1cc2ccc(OCc3ccccc3)cc2o1
194 °C | CNC(=O)c1cccc(NC(=O)COc2cccc3ccccc23)c1
279 °C | CCOC(=O)C1=C(N)NC2=C(C(=O)CCC2)C1c1cccc2ccccc12 (configuration not stated)
43 to 46 °C | C[Si](C)(C)c1cc(C(F)(F)F)ccc1OC1CCCCO1 (configuration not stated)
102 to 104 °C | CCOC(=O)c1c2ccc(Cl)cc2c(-c2ccccc2)n1CCCN(CC)C(C)=O
148 to 149 °C | COc1ccc2cc(C(=O)CCCCCCC(=O)O)ccc2c1
97 °C | CCCCCCCNC(=O)N(C)c1ncc(-c2ccc(C[C@H](OCC)C(=O)O)cc2)s1
91 to 93 °C | CS(=O)(=O)CCOC(=O)NCCSc1ccc2nccn2n1
171 to 173 °C | Cn1c(=O)c2cccc(N)c2c(=O)c2ccccc21
143 to 144 °C | CN1CCN(CC(=O)N2c3ccccc3N(C)S(=O)(=O)c3ccccc32)CC1
78 to 79 °C | COC(=O)c1oc(C(C)(C)C)cc1NC(=O)Nc1ccc(C)cc1
164 to 165 °C | COC(=O)c1nc(-c2ccc(Br)c(OC)c2F)cc(NC(C)=O)c1Cl
158 to 160 °C | CN1C(=O)C(C(=O)Nc2ccc(F)cc2)Sc2ccccc21 (configuration not stated)
184 °C | Fc1ccc(-c2csc(Nc3ccccc3C(F)(F)F)n2)cc1
131 to 132 °C | COc1ccc(-c2c(Cl)c(CNC3CC3)nc3sc4c(c23)CCN(Cc2ccccc2)C4)cc1OC
152 to 153 °C | CC(C)C[C@@H]1N[C@@H](c2ccc(C#N)cc2)[C@H]2C(=O)N(Cc3ccccc3)C(=O)[C@H]21 (racemic)
75 to 77 °C | Cc1ccnc(CO)c1Br
106 °C | N=c1sc2cc(OC(F)(F)F)ccc2n1CCCO
87 to 89 °C | O=[N+]([O-])c1cc(F)ccc1N1CCc2ccccc21
176 to 177 °C | CC(c1ccc(S(C)(=O)=O)cn1)C(O)(Cn1cncn1)c1ccc(F)cc1F (configuration not stated)
248 °C | CN(C)c1ccc(C(=O)Nc2ccc3ccc(Cl)nc3n2)cc1

melting point | Structure (SMILES)
167 to 170 °C | O=C(Nc1ccc(-n2nc(C(F)(F)F)nc2Cl)cc1)c1ccncc1F
85 to 87 °C | c1cn(CCCc2ccc(OCc3coc(-c4ccoc4)n3)cc2)cn1
98 to 100 °C | CCOC(=O)Cc1ccc2c(c1)C(=O)c1ccccc1CS2
160 to 161 °C | COCn1ccnc1C(O)(c1ccc(C(F)(F)F)cc1)c1ccc(C(F)(F)F)cc1
105 to 107 °C | CCOC(=O)c1cc2cc(-c3ccc(C(C)=O)cc3)ccc2o1
202 to 203 °C | Cc1ccccc1NC(=O)CN1C[C@@H](C)N(S(=O)(=O)c2cccc(N)c2)[C@@H](C)C1
42 to 43 °C | CCOC(=O)c1ccc(C(F)(F)F)cc1N
232 to 233 °C | c1cnc2[nH]cc(CN3CCN(c4ccc5[nH]ccc5c4)CC3)c2c1
194 to 196 °C | CN(C(=O)CNc1nc(-c2ccccc2)ncc1[N+](=O)[O-])c1ccccc1
200 to 202 °C | COc1cc(OC)nc(NC(=O)NS(=O)(=O)c2c(C(F)F)nsc2OCC(F)(F)F)n1
72 °C | CCCCSc1c2sc3ccccc3nc-2ccc1=O
190 °C | N#Cc1cnn2c(C(F)(F)F)cc(-c3ccc(F)c(Cl)c3)nc12
98 to 99 °C | COc1cccc(C(CNC(=O)Cc2c(Cl)cncc2Cl)CC(C)C)c1 (configuration not stated)
137 to 139 °C | COC(=O)[C@H](Cc1ccc([N+](=O)[O-])cc1)NC(=O)c1ccccc1F
56 °C | COC(=O)c1ccc(Cl)c(C2(O)C(=O)N(Cc3ccc(OC)cc3OC)c3ccc(Cl)cc32)c1 (configuration not stated)
> 300 °C | CCn1cc(C(=O)O)c(=O)c2ccc(N3CCN(c4ncccn4)CC3)c(OC(F)F)c21
182 to 183 °C | COC(=O)n1nnnc1-c1cnc2ccccn2c1=O
215 to 217 °C | Cc1nnc(-c2cc3c(OC[C@@H](O)CN4CCC(c5ccc6ccccc6c5)CC4)cccc3[nH]2)o1
118 to 121 °C | CCn1c(C)nc2cc(C(=O)OC)ccc21
171 °C | CCOc1cc(O)c2cc(F)c(F)c(F)c2n1
196 to 198 °C | COc1cc2c(Nc3ccc(Sc4nccn4C)c(Cl)c3)c(C#N)cnc2cc1OCCCN1CCC(N2CCCC2)CC1
98 to 101 °C | CCCSc1ncc(CO)n1Cc1ccccc1Cl
259 to 261 °C | C=C1Cc2c(n(-c3ccccc3)c3ncccc3c2=O)O1
124 to 125 °C | CN(CCOc1ccc(CCCN2C(=O)COC2=O)cc1F)c1ccccn1
122 to 124 °C | N#CC1(c2ccc(C(F)(F)F)cc2)C2CC3CC(C2)CC1C3 (configuration not stated)
105 to 107 °C | CCOC(=O)C1=C(C)NC(C(Nc2ccccc2C(=O)O)SCc2ccccc2)=C(C(=O)OCC)C1c1cccc([N+](=O)[O-])c1 (configuration not stated)
190 to 191 °C | Cc1oc(-c2ccccc2)nc1Cc1cc2cc(CC3OC(=O)NC3=O)ccc2o1 (configuration not stated)

Further lines, the compound ahead of its results:

Structure (SMILES) | melting point
COc1ccc(C2(C#Cc3cccc(-c4nc(C)no4)c3)CCCC(=O)C2)cc1OC1CCCC1 (configuration not stated) | 122 to 123 °C
CCCCCCCCCCCCCC/C=C\CN1C(=O)c2ccccc2C1=O | 56 to 60 °C
O=c1c2ccccc2sc2ccc(N3CCOCC3)cc12 | 166 to 167 °C
COc1cc2cc(C(=O)O)[nH]c2cc1OCCCl | 187 to 189 °C
CCCN1C(=O)C(C)(C)N=C(c2ccccc2F)c2cc([N+](=O)[O-])cc(Cl)c21 | 178 to 179 °C
CC(=O)Nc1cnc(C2OCCO2)cc1C | 98 to 99 °C
FC1CCC2C3Cc4ccccc4C2(CCN3)C1 (configuration not stated) | 93 to 97 °C
COC(=O)C(=O)Nc1cccc(OCCCBr)c1 | 90 to 91 °C
Cc1nc(CC2CCN(c3ccc(F)cc3)CC2)nc(C(=O)NCC(=O)O)c1O | 104 to 105 °C
CS(=O)(=O)c1ccc(C[C@@H](N)[C@H](O)C(=O)C2(C(=O)O)CC2N)cc1 (some centres not stated) | 256 to 258 °C
Cc1c(C)c2c(c(C)c1O)SC(CCC(N)=O)O2 (configuration not stated) | 160 to 161 °C
N#Cc1cc2c(cn1)CCCC2 | 56 to 59 °C
CCCCCCP1C(O)C(O)P(CCCCCC)C(O)C1O (configuration not stated) | 140 to 147 °C
C=C1C2CCC(=O)C23CCC(C3)C1(C)C (configuration not stated) | 77 to 79 °C
CCCCCCC/C=C/C(=O)Nc1ccccc1 | 54 to 55 °C
CCCCCCCCCCCCCCCCCCOc1cc(C(N)=O)cc([N+](=O)[O-])c1 | 117 to 120 °C
COc1nc2ncnc(NCc3ccco3)c2[nH]1 | 196 to 198 °C
COc1ccc2c(c1CC1CCCC1)CC[N+]([O-])=C2Cc1c(Cl)cncc1Cl | 176 to 178 °C
CCOP(=O)(/C=C/c1cn(C)nc1OCc1ccc(OCc2nc(-c3ccco3)oc2C)c(OC)c1)OCC | 72 to 73 °C
Cc1c(C(=O)Nc2ccc(N3CCC(N4CCOCC4)CC3)c(C#N)c2)cnn1Cc1ccccc1 | 155 °C
CN(C)c1ccccc1CSC1=NC(=O)C(C)(C)N1 | 113 to 115 °C
COc1ccc(C=O)c(Cl)c1O | 204 to 206 °C
Nc1ncnc2c1ncn2OCC(CO)SCP(=O)(O)O (configuration not stated) | 195 to 197 °C
CC1CCC(CCC(=O)O)(CCC(=O)O)C(=O)C1(CCC(=O)O)CCC(=O)O (configuration not stated) | 210 to 213 °C

Structure (SMILES) | melting point
CCCCCCCCCCC(O)C1CCC(C2CCC(C(O)CCCCCCCCCCC3CC(CC(C)=O)C(=O)O3)O2)O1 (configuration not stated) | 90.5 to 90.7 °C
O=C(O)Cc1ccccc1N1CCOCC1 | 128 °C
CCSc1c(O)ccc2[nH]ncc12 | 116 °C
CCSCCCN(C)c1c(S(=O)(=O)C(F)(F)F)c(C#N)nn1-c1c(Cl)cc(C(F)(F)F)cc1Cl | 89 °C
Cc1nnc(NCCCN2CCCC2=O)c2c1cc1ccccn12 | 257 to 258 °C
CCn1c(=O)n(O)c(=O)c2cc(F)c(N3CCOCC3)cc21 | 162 to 163 °C
CC(C)(C)OC(=O)NC[C@H]1CN(c2ccc3c(c2)CC(C(C)(C)C)N3)C(=O)O1 (some centres not stated) | 153 to 160 °C
N#CC(c1ccccc1)c1cc(Oc2cc(Cl)cc(Cl)c2)c2c(=O)c3ccccc3sc2c1 (configuration not stated) | 145 to 155 °C
CC(=O)N1CCC(CC(O)c2ccc(N(C)C)cc2)CC1 (configuration not stated) | 119 to 120 °C
CCCN(CCC)Cc1nc(-c2ncn3c2[C@@H]2CCN2C(=O)c2ccccc2-3)no1 | 208 to 210 °C
O=[N+]([O-])c1ccc(C2=NCCCN2)cc1 | 168 to 172 °C
O=C(NC1CCN(C2CCCCC2)C1)c1cccc(Br)c1 (configuration not stated) | 128 to 130 °C
O=S(=O)(C1CC1)N1CCC(Nc2nccc(-c3c(-c4ccc(F)c(O)c4)nc4sccn34)n2)CC1 | 224 to 225 °C
Cc1nncn1-c1ccc(Cl)cc1C(=O)O | 252 to 254 °C
COc1ccc2c(c1Cl)CCCC2=O | 130 to 131 °C
O=C1c2ccccc2S(=O)(=O)N1c1c(F)c(F)nc(F)c1F | 164 to 165 °C
CC(=O)NCCCc1ccc(Cl)c2c1CCO2 | 76 to 78 °C
CCOC(=O)[C@H](C)NCC(=O)Nc1c2c(nc3ccccc13)CCCC2 | 101 to 102 °C
CCCCCCCCCCCCC1(Cc2cc(N=Nc3ccc([N+](=O)[O-])cc3[N+](=O)[O-])ccc2O)COCCOCC(C)(C)COCCOC1 | 64 to 65 °C
CC(C)C[C@H](C(=O)OCc1ccccc1)N1CC[C@]2(CCCN2C(=O)C(C)C)C1=O | 87 °C
O=C1N(CCCl)CCN1C1CCCCC1 | 60 to 64 °C
COC(=O)c1c2c(c3cc4c(cc3c1-c1ccc(OC)c(OC)c1)OCO4)OCOC2=O | 168 to 170 °C
N#CSCC(Cl)=C(Cl)CBr | 64.5 to 66.5 °C
Cc1cc(C(=O)NCO)ncc1C(c1c(F)ccc(F)c1F)S(=O)(=O)CCC(F)(F)C(F)(F)F (configuration not stated) | 126 to 128 °C
